Experimental data: patent US20250127906A1, “SMALL-MOLECULE DEGRADERS OF CDK8 AND CDK19” (University of South Carolina, priority 2021, published 2025)
Marks after values point to notes of the source that are not given here.

Molecular target: CDK8 (Homo sapiens, UniProt P49336)
Assay: CDK8 degradation in HEK-293 cells (Western blot, normalized by GAPDH)
Type: cell-based
Design: endogenous in cells; host or cells: HEK-293
Settings: HEK-293; HP8580 200 nM and 1 μM, pomalidomide 5 μM, Senexin C 5 μM
Experimental: Table 1 presents the structures of 35 different chimeras that have been synthesized, together with their effects (at 1 μM or 0.3 μM concentrations) on CDK8 degradation in HEK-293 cells. The synthesis schemes of all the compounds are described below. CDK8 degradation was measured by Western blot analysis of RIPA lysates of HEK-293cells treated with or without the test compound for 24 hours, using antibodies against CDK8 (Santa Cruz sc-1521) and housekeeping protein GAPDH (Santa Cruz sc-32233) (loading control) Protein bands on immunoblotted PVDF membranes were visualized with Western Lighting Plus ECL detection reagent (Perkin Elmer, Waltham, MA, USA) using ChemiDoc Touch™ (Bio-Rad). Image processing and densitometry analysis were performed using ImageLab software (Bio-Rad) to quantify the CDK8 protein levels (normalized by GAPDH) and evaluate the effects of compound treatment.
FIGS. 2F and 2G show the effects of different concentrations of potent Senexin C- and BI-1347-based PROTACs on CDK8 and CDK19 degradation in HEK-293cells. Based on these assays, we calculated DC50 values that correspond to PROTAC concentrations inducing degradation of CDK8 and CDK19 to the half of protein level in untreated cells. The corresponding CDK8 DC50 values were 46 nM for IA7843, 6.6 nM for IA7882 and 2.8 nM for IA7886, and CDK19 DC50 values were 1 μM for IA7843, 25 nM for IA7882 and 10 nM for IA7886.

Chain of CDK8 (P49336 whole entry): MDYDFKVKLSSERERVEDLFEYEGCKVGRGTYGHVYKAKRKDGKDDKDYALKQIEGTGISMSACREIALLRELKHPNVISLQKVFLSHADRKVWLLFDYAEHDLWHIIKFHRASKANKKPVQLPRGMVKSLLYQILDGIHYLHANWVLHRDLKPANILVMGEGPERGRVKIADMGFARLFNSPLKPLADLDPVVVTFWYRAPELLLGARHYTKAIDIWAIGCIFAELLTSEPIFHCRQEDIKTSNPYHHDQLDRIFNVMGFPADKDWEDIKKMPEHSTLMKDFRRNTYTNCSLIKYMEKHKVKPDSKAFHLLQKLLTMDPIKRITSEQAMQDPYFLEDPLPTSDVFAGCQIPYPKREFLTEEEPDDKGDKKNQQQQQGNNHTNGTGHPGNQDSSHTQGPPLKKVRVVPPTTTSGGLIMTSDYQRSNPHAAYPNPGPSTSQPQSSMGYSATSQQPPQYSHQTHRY
Chain of CDK8 (P24863 whole entry partner): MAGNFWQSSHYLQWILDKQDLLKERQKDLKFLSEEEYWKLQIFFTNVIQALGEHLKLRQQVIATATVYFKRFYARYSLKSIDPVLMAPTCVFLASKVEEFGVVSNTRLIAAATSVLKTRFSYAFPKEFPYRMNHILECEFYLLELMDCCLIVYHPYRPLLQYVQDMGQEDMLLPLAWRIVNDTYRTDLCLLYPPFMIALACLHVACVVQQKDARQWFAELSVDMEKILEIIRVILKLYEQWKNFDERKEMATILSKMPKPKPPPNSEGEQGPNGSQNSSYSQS

`N#Cc1ccc2nccc(NCCc3ccc4cc(C(=O)N5CCN(C(=O)CCOCCOCCOCCOCCNc6cccc7c6C(=O)N(C6CCC(=O)NC6=O)C7=O)CC5)ccc4c3)c2c1` (stereo not drawn) [HP8580, 4-[2-[6-[4-[3-[2-[2-[2-[2-[[2-(2,6-dioxo-3-piperidyl)-1,3-dioxo-isoindolin-4-yl]amino]ethoxy]ethoxy]ethoxy]ethoxy]propanoyl]piperazine-1-carbonyl]-2-naphthyl]ethylamino]quinoline-6-carbonitrile] was tested, and the “induction of CDK8 degradation by single agents” value was “induced CDK8 degradation”.

Same assay, conditions: HEK-293; with MG132 5 μM, pomalidomide 5 μM or Senexin C 5 μM

With `N#Cc1ccc2nccc(NCCc3ccc4cc(C(=O)N5CCN(C(=O)CCOCCOCCOCCOCCNc6cccc7c6C(=O)N(C6CCC(=O)NC6=O)C7=O)CC5)ccc4c3)c2c1` (stereo not drawn) [HP8580, 4-[2-[6-[4-[3-[2-[2-[2-[2-[[2-(2,6-dioxo-3-piperidyl)-1,3-dioxo-isoindolin-4-yl]amino]ethoxy]ethoxy]ethoxy]ethoxy]propanoyl]piperazine-1-carbonyl]-2-naphthyl]ethylamino]quinoline-6-carbonitrile] the “effect of co-treatment on HP8580-mediated CDK8 degradation” value was “reversed by proteasome inhibition with MG132 as well as by competition with pomalidomide or Senexin C”.

Same assay, conditions: HEK-293 cells, 24 hours, tested at 0.3 μM (marked *)

First: O=C1CCC(N2C(=O)c3cccc(NCCCCC(=O)N4CCN(C(=O)Cn5cc(-c6ccc(-c7cncc8ccccc78)cc6)cn5)CC4)c3C2=O)C(=O)N1 (stereo not drawn) [IA7895, 2-(2,6-dioxopiperidin-3-yl)-4-((5-(4-(2-(4-(4-(isoquinolin-4-yl)phenyl)-1H-pyrazol-1-yl)acetyl)piperazin-1-yl)-5-oxopentyl)amino) isoindoline-1,3-dione]
Second: CC(C)(C)C(=O)OCN1C(=O)CCC(N2C(=O)c3cccc(NCCCC(=O)NCCCCCCCCCCC(=O)N4CCN(C(=O)Cn5cc(-c6ccc(-c7cncc8ccccc78)cc6)cn5)CC4)c3C2=O)C1=O (stereo not drawn) [IA7893, (3-(4-((4-((11-(4-(2-(4-(4-(isoquinolin-4-yl)phenyl)-1H-pyrazol-1-yl)acetyl)piperazin-1-yl)-11-oxoundecyl)amino)-4-oxobutyl)amino)-1,3-dioxoisoindolin-2-yl)-2,6-dioxopiperidin-1-yl)methyl pivalate]
The “% CDK8 remaining” value of the first is higher: 70%* for the first, 9%* for the second.

Same assay, conditions: HEK-293 cells, 24 hours, tested at 1 μM

Going from `N#Cc1ccc2nccc(NCCc3ccc4cc(C(=O)N5CCN(C(=O)CCCCCCCCCCNC(=O)CCCNc6ccc7c(c6)C(=O)N(C6CCC(=O)NC6=O)C7=O)CC5)ccc4c3)c2c1` (stereo not drawn) [IA7868, N-[11-[4-[6-[2-[(6-cyano-4-quinolyl)amino]ethyl]naphthalene-2-carbonyl]piperazin-1-yl]-11-oxo-undecyl]-4-[[2-(2,6-dioxo-3-piperidyl)-1,3-dioxo-isoindolin-5-yl]amino]butanamide] to `N#Cc1ccc2nccc(NCCc3ccc4cc(C(=O)N5CCN(C(=O)CCCCCCCCNC(=O)CCCCCNc6cccc7c6C(=O)N(C6CCC(=O)NC6=O)C7=O)CC5)ccc4c3)c2c1` (stereo not drawn) [IA7860, N-[9-[4-[6-[2-[(6-cyano-4-quinolyl)amino]ethyl]naphthalene-2-carbonyl]piperazin-1-yl]-9-oxo-nonyl]-6-[[2-(2,6-dioxo-3-piperidyl)-1,3-dioxo-isoindolin-4-yl]amino]hexanamide], the “% CDK8 remaining” value rises from 39% to 95%.

`Cc1ncsc1-c1ccc(CNC(=O)[C@@H]2C[C@@H](O)CN2C(=O)[C@@H](NC(=O)CCOCCOCCOCCOCCC(=O)N2CCN(C(=O)c3ccc4cc(CCNc5ccnc6ccc(C#N)cc56)ccc4c3)CC2)C(C)(C)C)cc1` [IA7807, (2S,4R)-1-((S)-2-(tert-butyl)-19-(4-(6-(2-((6-cyanoquinolin-4-yl)amino)ethyl)-2-naphthoyl)piperazin-1-yl)-4,19-dioxo-7,10,13,16-tetraoxa-3-azanonadecanoyl)-4-hydroxy-N-(4-(4-methylthiazol-5-yl)benzyl) pyrrolidine-2-carboxamide] and `CN1C(=O)CCC(N2C(=O)c3cccc(NCCOCCOCCOCCOCCC(=O)N4CCN(C(=O)c5ccc6cc(CCNc7ccnc8ccc(C#N)cc78)ccc6c5)CC4)c3C2=O)C1=O` (stereo not drawn) [IA7803, 4-[2-[6-[4-[3-[2-[2-[2-[2-[[2-(1-methyl-2,6-dioxo-3-piperidyl)-1,3-dioxo-isoindolin-4-yl]amino]ethoxy]ethoxy]ethoxy]ethoxy]propanoyl]piperazine-1-carbonyl]-2-naphthyl]ethylamino]quinoline-6-carbonitrile] are the same in “% CDK8 remaining” value: 100% for the first, 100% for the second.

Going from `N#Cc1ccc2nccc(NCCc3ccc4cc(C(=O)N5CCN(C(=O)CCOCCOCCOCCNc6cccc7c6C(=O)N(C6CCC(=O)NC6=O)C7=O)CC5)ccc4c3)c2c1` (stereo not drawn) [HV5957, 4-[2-[6-[4-[3-[2-[2-[2-[[2-(2,6-dioxo-3-piperidyl)-1,3-dioxo-isoindolin-4-yl]amino]ethoxy]ethoxy]ethoxy]propanoyl]piperazine-1-carbonyl]-2-naphthyl]ethylamino]quinoline-6-carbonitrile] to `N#Cc1ccc2nccc(NCCc3ccc4cc(C(=O)N5CCN(C(=O)CCOCCOCCOCCOCCNc6cccc7c6C(=O)N(C6CCC(=O)NC6=O)C7=O)CC5)ccc4c3)c2c1` (stereo not drawn) [HP8580, 4-[2-[6-[4-[3-[2-[2-[2-[2-[[2-(2,6-dioxo-3-piperidyl)-1,3-dioxo-isoindolin-4-yl]amino]ethoxy]ethoxy]ethoxy]ethoxy]propanoyl]piperazine-1-carbonyl]-2-naphthyl]ethylamino]quinoline-6-carbonitrile], the “% CDK8 remaining” value falls from 21% to 20%.

Compared with `N#Cc1ccc2nccc(NCCc3ccc4cc(C(=O)N5CCN(C(=O)CCOCCOCCOCCOCCOCCOCCNc6cccc7c6C(=O)N(C6CCC(=O)NC6=O)C7=O)CC5)ccc4c3)c2c1` (stereo not drawn) [IA7813, 4-[2-[6-[4-[3-[2-[2-[2-[2-[2-[2-[[2-(2,6-dioxo-3-piperidyl)-1,3-dioxo-isoindolin-4-yl]amino]ethoxy]ethoxy]ethoxy]ethoxy]ethoxy]ethoxy]propanoyl]piperazine-1-carbonyl]-2-naphthyl]ethylamino]quinoline-6-carbonitrile], `N#Cc1ccc2nccc(NCCc3ccc4cc(C(=O)N5CCN(CCCNC(=O)CCOCCOCCOCCOCCNc6cccc7c6C(=O)N(C6CCC(=O)NC6=O)C7=O)CC5)ccc4c3)c2c1` (stereo not drawn) [HP8579] is higher in “% CDK8 remaining” value: 28% for the first, 29% for the second.

Going from `O=C(Cn1cc(-c2ccc(-c3cncc4ccccc34)cc2)cn1)NCCOCCOCCOCCOCCNc1cccc2c1C(=O)N(C1CCC(=O)NC1=O)C2=O` (stereo not drawn) [IA7891, N-[2-[2-[2-[2-[2-[[2-(2,6-dioxo-3-piperidyl)-1,3-dioxo-isoindolin-4-yl]amino]ethoxy]ethoxy]ethoxy]ethoxy]ethyl]-2-[4-[4-(4-isoquinolyl)phenyl]pyrazol-1-yl]acetamide] to `CN(CCCNC(=O)CCOCCOCCOCCOCCNc1cccc2c1C(=O)N(C1CCC(=O)NC1=O)C2=O)C(=O)c1ccc2cc(CCNc3ccnc4ccc(C#N)cc34)ccc2c1` (stereo not drawn) [HP8581, 6-[2-[(6-cyano-4-quinolyl)amino]ethyl]-N-[3-[3-[2-[2-[2-[2-[[2-(2,6-dioxo-3-piperidyl)-1,3-dioxo-isoindolin-4-yl]amino]ethoxy]ethoxy]ethoxy]ethoxy]propanoylamino]propyl]-N-methyl-naphthalene-2-carboxamide], the “% CDK8 remaining” value falls from 100% to 36%.

Going from `CN(CCCNC(=O)CCOCCOCCOCCOCCNc1cccc2c1C(=O)N(C1CCC(=O)NC1=O)C2=O)C(=O)c1ccc(N2CCCN(c3ccnc4sc(C(N)=O)c(N)c34)CC2)cc1` (stereo not drawn) [HP8553] to `CN(CCCNC(=O)CCOCCOCCOCCOCCOCCOCCNc1cccc2c1C(=O)N(C1CCC(=O)NC1=O)C2=O)C(=O)c1ccc(N2CCCN(c3ccnc4sc(C(N)=O)c(N)c34)CC2)cc1` (stereo not drawn) [IA7814, 3-amino-4-[4-[4-[3-[3-[2-[2-[2-[2-[2-[2-[[2-(2,6-dioxo-3-piperidyl)-1,3-dioxo-isoindolin-4-yl]amino]ethoxy]ethoxy]ethoxy]ethoxy]ethoxy]ethoxy]propanoylamino]propyl-methyl-carbamoyl]phenyl]-1,4-diazepan-1-yl]thieno[2,3-b]pyridine-2-carboxamide], the “% CDK8 remaining” value falls from 74% to 59%.

Going from `N#Cc1ccc2nccc(NCCc3ccc4cc(C(=O)N5CCN(C(=O)CCNC(=O)CCOCCOCCOCCNc6cccc7c6C(=O)N(C6CCC(=O)NC6=O)C7=O)CC5)ccc4c3)c2c1` (stereo not drawn) [IA7819, N-[3-[4-[6-[2-[(6-cyano-4-quinolyl)amino]ethyl]naphthalene-2-carbonyl]piperazin-1-yl]-3-oxo-propyl]-3-[2-[2-[2-[[2-(2,6-dioxo-3-piperidyl)-1,3-dioxo-isoindolin-4-yl]amino]ethoxy]ethoxy]ethoxy]propanamide] to `N#Cc1ccc2nccc(NCCc3ccc4cc(C(=O)N5CCN(C(=O)CCCCCCCCCCCNC(=O)CCNc6cccc7c6C(=O)N(C6CCC(=O)NC6=O)C7=O)CC5)ccc4c3)c2c1` (stereo not drawn) [IA7848, N-[12-[4-[6-[2-[(6-cyano-4-quinolyl)amino]ethyl]naphthalene-2-carbonyl]piperazin-1-yl]-12-oxo-dodecyl]-3-[[2-(2,6-dioxo-3-piperidyl)-1,3-dioxo-isoindolin-4-yl]amino]propanamide], the “% CDK8 remaining” value falls from 66% to 31%.

Compared with `N#Cc1ccc2nccc(NCCc3ccc4cc(C(=O)N5CCN(C(=O)CCCCCCCCCNC(=O)CCCCNc6cccc7c6C(=O)N(C6CCC(=O)NC6=O)C7=O)CC5)ccc4c3)c2c1` (stereo not drawn) [IA7861, N-[10-[4-[6-[2-[(6-cyano-4-quinolyl)amino]ethyl]naphthalene-2-carbonyl]piperazin-1-yl]-10-oxo-decyl]-5-[[2-(2,6-dioxo-3-piperidyl)-1,3-dioxo-isoindolin-4-yl]amino]pentanamide], `N#Cc1ccc2nccc(NCCc3ccc4cc(C(=O)N5CCN(C(=O)CCCCCCCCCCNC(=O)CCCNc6cccc7c6CN(C6CCC(=O)NC6=O)C7=O)CC5)ccc4c3)c2c1` (stereo not drawn) [IA7869, N-[11-[4-[6-[2-[(6-cyano-4-quinolyl)amino]ethyl]naphthalene-2-carbonyl]piperazin-1-yl]-11-oxo-undecyl]-4-[[2-(2,6-dioxo-3-piperidyl)-1-oxo-isoindolin-4-yl]amino]butanamide] is higher in “% CDK8 remaining” value: 19% for the first, 43% for the second.

Same assay, conditions: HEK-293 cells, Western blot

With `CC(C)(C)C(=O)OCN1C(=O)CCC(N2C(=O)c3cccc(NCCCC(=O)NCCCCCCCCCCC(=O)N4CCN(C(=O)Cn5cc(-c6ccc(-c7cncc8ccccc78)cc6)cn5)CC4)c3C2=O)C1=O` (stereo not drawn) [IA7893, (3-(4-((4-((11-(4-(2-(4-(4-(isoquinolin-4-yl)phenyl)-1H-pyrazol-1-yl)acetyl)piperazin-1-yl)-11-oxoundecyl)amino)-4-oxobutyl)amino)-1,3-dioxoisoindolin-2-yl)-2,6-dioxopiperidin-1-yl)methyl pivalate] the “CDK8 degradation (in words)” value was “highly potent degrader”.
